According to patent publication US11590119B2, “(S)-2-(1-(5-(cyclohexylcarbamoyl)-6-(propylthio)pyridin-2-yl)piperidin-3-yl)acetic acid for use in medicine” (University of Leeds, priority 2019, dated 2023):

How the values were obtained:
11β-HSD1 [1] = target: T1, 11β-HSD1 (Homo sapiens, UniProt P28845); details: abdominally obese healthy adult male volunteers, daily oral dosing
Experimental: In more detail, a Phase I study using AZD4017 in abdominally obese healthy adult male volunteers involved an assessment of 11β-HSD1 inhibition in human adipose tissue as a function of time following daily oral dosing of the inhibitor (11β-HSD1 activity was assessed by an assay measuring the conversion of cortisone to cortisol in adipose tissue samples). […] Tachyphylaxis was also investigated with an additional AstraZeneca 11β-HSD1 inhibitor, AZD8329, from a different chemical series (see Morentin Gutierrez et al, Br J Pharmacol […], 172, 4806-16).
FIG. 1: Conversion of ^3H cortisone [20 nM] to ^3H cortisol (%/100 mg adipose tissue) after repeated dosing of AZD4017.

HUVEC tubule formation = assay: HUVEC tubule formation, in vitro model of angiogenesis; assay type: cell-based, human; details: IL-1β 10 ng/ml; cortisone 200 nM; AZD4017 1 μM with cortisone; biological n=1
[2] = tested on: fibroblasts and endothelial cell co-culture; assay: Angiogenesis co-culture assay with HDF conditioned media (tube length, branch points); assay type: cell-based, human; details: conditioned media of HDFs treated with IL-1β+200 nM cortisone+1 μM AZD4017, 7 days in culture
Experimental: In order to further study the effects of AZD4017 on angiogenesis in a quantitative manner, a further related experiment to that described above was performed. In this model in vitro cultured human dermal fibroblasts were treated with a) 10 ng/ml IL-1β, b) IL-1β+100 nM cortisol, c) IL-1β+200 nM cortisone or d) IL-1β+cortisone+1 μM AZD4017 (selective 11β-HSD1 inhibitor).

MMP7 and TGM2 expression = assay: Protein profiling (Sciomics) and RNAseq of primary human dermal fibroblasts; assay type: cell-based; details: HDFs, IL-1β+cortisone+AZD4017, n=3
Text: Protein profiling (Sciomics) conducted on primary human dermal fibroblasts (HDF) treated with vehicle, IL-1β, IL-1β+cortisone or IL-1β+cortisone+the selective 11β HSD1 inhibitor AZD4017 (n=3, same HDF as for RNAseq experiments) identified a number of proteins regulated by 11β-HSD1. […] The proteins found to be regulated by 11β-HSD1 include MMP7 and TGM2. […] Regulation of MMP7 by GC has to the best of our knowledge not previously been reported (Velasco, J., et al., J Biol Chem, 2011. 286(29): p. 26016-27).

skin wounds = assay: Phase II trial in T2DM: deep learning segmentation of OCT wound images; assay type: in vivo, human; details: day 30, 2 days after wounding at day 28, p<0.05
Text: FIG. 17: 2D OCT image of wound segmented into compartments. i) void; ii) intact tissue; iii) wound collagen; iv) wound with sponginess morphology; v) neoepidermis; vi) clot & vii) blood (in liquid form).
FIG. 18: Figure illustrating the improved amount of A) neoepidermis and B) clot volume two days after wounding and after 30 days of treatment with AZD4017 (AZD) and placebo (PBO).
To further understand the effects of AZD4017 in the wound healing process a deep learning based image processing method was developed for recognising different sub-tissue components from optical coherence tomography (OCT) images. The method was based on a u-net convolutional neural network (see Ronneberger O., Fischer P., Brox T. (2015) U-Net: Convolutional Networks for Biomedical Image Segmentation. In: Navab N., Hornegger J., Wells W., Frangi A. (eds) Medical Image Computing and Computer-Assisted Intervention—MICCAI 2015. MICCAI 2015. Lecture Notes in Computer Science, vol 9351. Springer, Cham. https://doi.org/10.1007/978-3-319-24574-4_28). […]
Further morphological image processing was then performed to the labelled image as post processing processes to show meaningful continuous regions of sub-tissue components. As a result, the area (mm^2) of each sub-tissue components could be calculated. In addition the volume (mm^3) of each sub-tissue components across 120 slices of tissues were also determined. […]

[3] = Phase II trial in T2DM: adverse effects; assay type: in vivo, human; details: T2DM patients, 400 mg twice daily oral, 35 days
Text: AD4017 is thus identified for the first time as a safe and effective agent with therapeutic and prophylactic potential for the treatment of wound healing in patient populations susceptible to the development of chronic wounds and the complications associated therewith.

11β-HSD1 [4] = target: T1, 11β-HSD1; details: cited from earlier work
11β-HSD1 [5] = target: T1, 11β-HSD1; assay: 11β-HSD1 activity (conversion of cortisone to cortisol) in primary human dermal fibroblasts; assay type: cell-based; parameters: from tissue; host or cells: adipose tissue of abdominally obese healthy adult male volunteers; details: 1 μM, over 18 h, HDFs pretreated with IL-1β and cortisol
Experimental: FIG. 5: 11β-HSD1 activity in primary human dermal fibroblasts.
In order to investigate the effects, prevalence and relevance of 11β-HSD1 in human skin and diabetic wound healing the effects of the proinflammatory cytokine, IL-1β on human dermal fibroblasts (HDFs) in culture was assessed in the preclinical setting. […] In these experiments RU486 (mifepristone) was used as a competitive cortisol antagonist.

T1 sequence (P28845 whole entry): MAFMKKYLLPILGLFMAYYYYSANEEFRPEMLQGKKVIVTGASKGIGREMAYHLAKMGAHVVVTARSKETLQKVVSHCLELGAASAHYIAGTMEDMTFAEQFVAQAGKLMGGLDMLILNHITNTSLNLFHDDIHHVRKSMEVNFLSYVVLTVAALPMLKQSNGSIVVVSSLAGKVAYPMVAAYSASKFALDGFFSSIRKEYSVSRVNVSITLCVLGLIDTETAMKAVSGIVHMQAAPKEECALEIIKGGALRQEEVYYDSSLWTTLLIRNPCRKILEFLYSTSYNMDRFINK

SMILES: CCCSc1nc(N2CCC[C@@H](CC(=O)O)C2)ccc1C(=O)NC1CCCCC1 [AZD4017, (S)-2-(1-(5-(cyclohexylcarbamoyl)-6-(propylthio)pyridin-2-yl)piperidin-3-yl)acetic acid]
- 11β-HSD1 activity in adipose tissue relative to baseline (11β-HSD1 [1]; day 1): reduced 11β-HSD1 activity relative to baseline
- net 11β-HSD1 activity in adipose tissue post-dose versus baseline level on day 0 (11β-HSD1 [1]; day 9 post dose): still greater than the baseline level on day 0
- tubule formation (HUVEC tubule formation): the same IL-1β stimulated tubule formation as observed in the absence of cortisone
- IL-1β stimulated tube formation (tube length, number of branch points) [2]: decreased the negative effects of cortisone/cortisol
- MMP7 protein and gene expression (MMP7 and TGM2 expression): downregulated MMP7
- TGM2 protein and gene expression (MMP7 and TGM2 expression): stimulate TGM2 protein and gene expression
- volume of clots in the wound site compared to placebo (skin wounds): statistical significant increases
- volume of neoepidermis in the wound site compared to placebo (skin wounds): statistical significant increases
- adverse effects in the treatment cohort [3]: no significant adverse effects
- cortisol levels in the adipose tissues (11β-HSD1 [4]; after 9 days dosing, versus before dosing): higher than those measured before dosing commenced
- inhibition of 11β-HSD1 activity in adipose tissue (11β-HSD1 [4]; after 9 days of treatment, as quoted from Freude): not observed after 9 days of treatment
- inhibition of 11β-HSD1 activity in adipose tissue vs baseline (11β-HSD1 [4]; after single doses, as quoted from Freude): 50%
- effect on 11β-HSD1 enzyme activity and production of F (cortisol) (11β-HSD1 [5]): completely blocked the enzyme activity
